Read-outs that look alike come from different tables or passages of the source.
Experiments:
Type in all cases: in vivo
[1] = tested on: Cabbage Looper (Trichoplusia ni, TRIPNI); experiment: Bioassay on Cabbage Looper (CL), 128-well diet tray assay; conditions: Trichoplusia ni
Method in brief: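 Test molecule is dissolved in 90:10 acetone-water and applied at 50 μg/cm^2 onto artificial diet, then dried. One to five second-instar larvae go into each of eight wells. Trays, sealed but vented, stay at 25° C., 14:10 light-dark, five to seven days, after which mortality is averaged.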

[2] = tested on: Beet Armyworm (Spodoptera exigua, LAPHEG); experiment: Bioassay on Beet Armyworm (BAW), 128-well diet tray assay
Method in brief: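 Diet tray, 8 wells/compound; 50 μg/cm^2 applied to diet surface (90:10 acetone-water), dried. 1–5 L2 larvae/well; 25° C., 14:10 L:D, 5–7 d. Read-out: % mortality, mean of 8 wells.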

[3] = tested on: Green Peach Aphid (Myzus persicae, MYZUPE); experiment: Bioassay on Green Peach Aphid (GPA), foliar spray on infested cabbage seedlings; conditions: 72 h
Protocol: Certain molecules disclosed in this document were tested against GPA using procedures described in the following example. In the reporting of the results, the “GPA & YFM Rating Table” was used (See Table Section).
Cabbage seedlings grown in 3-inch pots, with 2-3 small (3-5 cm) true leaves, were used as test substrate. The seedlings were infested with 20-50 GPA (wingless adult and nymph stages) one day prior to chemical application. Four pots with individual seedlings were used for each treatment. Test molecules (2 mg) were dissolved in 2 mL of acetone/methanol (1:1) solvent, forming stock solutions of 1000 ppm test molecule. The stock solutions were diluted 5× with 0.025% Tween 20 in water to obtain the solution at 200 ppm test molecule. A hand-held aspirator-type sprayer was used for spraying a solution to both sides of […] leaves until runoff. Reference plants (solvent check) were sprayed with the diluent only containing 20% by volume of acetone/methanol (1:1) solvent. Treated plants were held in a holding room for three days at approximately 25° C. and ambient relative humidity (RH) prior to grading. Evaluation was conducted by counting the number of live aphids per plant under a microscope. Percent control was measured using Abbott's correction formula (W. S. Abbott, “A Method of Computing the Effectiveness of an Insecticide” 3. Econ. Entomol. 18 (1925), pp. 265-267) as follows. Corrected % Control=100*(X−Y)/X where X=No. of live aphids on solvent check plants and Y=No. of live aphids on treated plants. The results are indicated in the table entitled “Table ABC: Biological Results” (See Table Section).

[4] = Species CL (Cabbage Looper), read-out: CL (Biological Results, rating)
[5] = Species BAW (Beet Armyworm), read-out: BAW (Biological Results, rating)
[6] = foliar, Species GPA (Green Peach Aphid), read-out: GPA (Biological Results, rating)

| SMILES | pest or weed control at 50 µg/cm2 [1, 4] [%] | pest or weed control at 50 µg/cm2 [2, 5] [%] | pest or weed control at 200 µg/mL [3, 6] [%] | pest or weed control at 50 µg/cm2 ([1]; Cabbage Looper, 128-well diet tray assay, read-out: CL rating) [%] | pest or weed control at 50 µg/cm2 ([2]; Beet Armyworm, 128-well diet tray assay, read-out: BAW rating) [%] | pest or weed control at 200 µg/mL ([3]; Green Peach Aphid, foliar spray on cabbage seedlings, read-out: GPA rating) [%] |
| --- | --- | --- | --- | --- | --- | --- |
| O=C(Nc1ccc(F)cc1)c1cc(NC(=O)[C@H]2[C@H](c3cc(Cl)cc(Cl)c3)C2(Cl)Cl)c(F)cc1F (relative stereo) [F49, trans-5-(2,2-Dichloro-3-(3,5-dichlorophenyl)cyclopropane-1-carboxamido)-2,4-difluoro-N-(4-fluorophenyl)benzamide] | 50 to 100 | 50 to 100 | 0 to 80 | – | – | – |
| O=C(Nc1ccc(F)cc1)c1cc(NC(=O)[C@H]2[C@H](c3cc(Cl)c(F)c(Cl)c3)C2(Cl)Cl)ccc1Cl (relative stereo) [F96, trans-2-Chloro-5-(2,2-dichloro-3-(3,5-dichloro-4-fluorophenyl)cyclopropane-1-carboxamido)-N-(4-fluorophenyl)benzamide] | 50 to 100 | 50 to 100 | 80 to 100 | – | – | – |
| Cc1cc(Cl)cc([C@H]2[C@H](C(=O)Nc3ccc(Cl)c(C(=O)N(C)c4ccc(F)cc4)c3)C2(Cl)Cl)c1 (relative stereo) [F117, trans-2-Chloro-5-(2,2-dichloro-3-(3-chloro-5-methylphenyl)cyclopropane-1-carboxamido)-N-(4-fluorophenyl)-N-methylbenzamide] | 50 to 100 | 50 to 100 | 0 to 80 | – | – | – |
| Cc1cc([C@H]2[C@H](C(=O)Nc3ccc(Cl)c(C(=O)N(C)c4ccc(F)cc4)c3)C2(Cl)Cl)cc(Cl)c1Cl (relative stereo) [F124, trans-2-Chloro-5-(2,2-dichloro-3-(3,4-dichloro-5-methylphenyl)cyclopropane-1-carboxamido)-N-(4-fluorophenyl)-N-methylbenzamide] | 50 to 100 | 50 to 100 | 0 to 80 | – | – | – |
| O=C(Nc1ccc(F)cc1)c1cc(NC(=O)[C@H]2[C@H](c3cc(Cl)cc(Cl)c3)C2(Cl)Cl)ccn1 (relative stereo) [F126, trans-4-(2,2-dichloro-3-(3,5-dichlorophenyl)cyclopropane-1-carboxamido)-N-(4-fluorophenyl)picolinamide] | 50 to 100 | 50 to 100 | 0 to 80 | – | – | – |
| O=C(Nc1ccc(F)cc1)c1cccc(NC(=O)[C@H]2[C@H](c3cc(Cl)cc(Cl)c3)C2(Cl)Cl)c1Cl (relative stereo) [F127, trans-2-Chloro-3-(2,2-dichloro-3-(3,5-dichlorophenyl)cyclopropane-1-carboxamido)-N-(4-fluorophenyl)benzamide] | 50 to 100 | 50 to 100 | 0 to 80 | – | – | – |
| COc1ccc(NC(=O)[C@H]2[C@H](c3cc(Cl)cc(Cl)c3)C2(Cl)Cl)cc1C(=O)Nc1ccc(F)cc1 (relative stereo) [F128, trans-5-(2,2-Dichloro-3-(3,5-dichlorophenyl)cyclopropane-1-carboxamido)-N-(4-fluorophenyl)-2-methoxybenzamide] | 50 to 100 | 0 to 50 | 0 to 80 | – | – | – |
| O=C(Nc1ccc(F)nc1)c1cc(NC(=O)[C@H]2[C@H](c3cc(Cl)cc(Cl)c3)C2(Cl)Cl)ccc1Cl (relative stereo) [F142, trans-2-chloro-5-(2,2-dichloro-3-(3,5-dichlorophenyl)cyclopropane-1-carboxamido)-N-(6-fluoropyridin-3-yl)benzamide] | 50 to 100 | 50 to 100 | 80 to 100 | – | – | – |
| COc1ccc(NC(=O)c2cc(NC(=O)[C@H]3[C@H](c4cc(Cl)cc(Cl)c4)C3(Cl)Cl)ccc2Cl)cc1 (relative stereo) [F146, trans-2-chloro-5-(2,2-dichloro-3-(3,5-dichlorophenyl)cyclopropane-1-carboxamido)-N-(4-methoxyphenyl)benzamide] | 50 to 100 | 50 to 100 | 80 to 100 | – | – | – |
| O=C(Nc1ccc(OC(F)(F)F)cc1)c1cc(NC(=O)[C@H]2[C@H](c3cc(Cl)cc(Cl)c3)C2(Cl)Cl)ccc1Cl (relative stereo) [F147, trans-2-Chloro-5-(2,2-dichloro-3-(3,5-dichlorophenyl)cyclopropane-1-carboxamido)-N-(4-(trifluoromethoxy)phenyl)benzamide] | 50 to 100 | 50 to 100 | 0 to 80 | – | – | – |
| O=C(Nc1ccc(OC(F)F)cc1)c1cc(NC(=O)[C@H]2[C@H](c3cc(Cl)cc(Cl)c3)C2(Cl)Cl)ccc1Cl (relative stereo) [F148, trans-2-Chloro-5-(2,2-dichloro-3-(3,5-dichlorophenyl)cyclopropane-1-carboxamido)-N-(4-(difluoromethoxy)phenyl)benzamide] | 50 to 100 | 50 to 100 | 0 to 80 | – | – | – |
| COc1ccc(NC(=O)c2cc(NC(=O)[C@H]3[C@H](c4cc(Cl)cc(Cl)c4)C3(Cl)Cl)ccc2Cl)c(F)c1 (relative stereo) [F150, trans-2-Chloro-5-(2,2-dichloro-3-(3,5-dichlorophenyl)cyclopropane-1-carboxamido)-N-(2-fluoro-4-methoxyphenyl)benzamide] | 50 to 100 | 50 to 100 | 80 to 100 | – | – | – |
| Cc1ccc(NC(=O)c2cc(NC(=O)[C@H]3[C@H](c4cc(Cl)cc(Cl)c4)C3(Cl)Cl)ccc2Cl)c(F)c1 (relative stereo) [F151, trans-2-Chloro-5-(2,2-dichloro-3-(3,5-dichlorophenyl)cyclopropane-1-carboxamido)-N-(2-fluoro-4-methylphenyl)benzamide] | 50 to 100 | 50 to 100 | 80 to 100 | – | – | – |
| CNC(=O)c1ccc(NC(=O)c2cc(NC(=O)[C@H]3[C@H](c4cc(Cl)cc(Cl)c4)C3(Cl)Cl)ccc2Cl)cc1 (relative stereo) [F152, trans-2-Chloro-5-(2,2-dichloro-3-(3,5-dichlorophenyl)cyclopropane-1-carboxamido)-N-(4-(methylcarbamoyl)phenyl)benzamide] | 50 to 100 | 50 to 100 | 0 to 80 | – | – | – |
| CC(=O)Nc1ccc(NC(=O)c2cc(NC(=O)[C@H]3[C@H](c4cc(Cl)cc(Cl)c4)C3(Cl)Cl)ccc2Cl)cc1 (relative stereo) [F153, trans-N-(4-Acetamidophenyl)-2-chloro-5-(2,2-dichloro-3-(3,5-dichlorophenyl)cyclopropane-1-carboxamido)benzamide] | 50 to 100 | 50 to 100 | 0 to 80 | – | – | – |
| O=C(Nc1cc(F)cc(F)c1)c1cc(NC(=O)[C@H]2[C@H](c3cc(Cl)cc(Cl)c3)C2(Cl)Cl)ccc1Cl (relative stereo) [F154, trans-2-Chloro-5-(2,2-dichloro-3-(3,5-dichlorophenyl)cyclopropane-1-carboxamido)-N-(3,5-difluorophenyl)benzamide] | 50 to 100 | 50 to 100 | 80 to 100 | – | – | – |
| O=C(Nc1ccc(Cl)c(C(=O)N2CCc3cc(F)ccc32)c1)[C@H]1[C@H](c2cc(Cl)cc(Cl)c2)C1(Cl)Cl (relative stereo) [F155, trans-2,2-Dichloro-N-(4-chloro-3-(5-fluoroindoline-1-carbonyl)phenyl)-3-(3,5-dichlorophenyl)cyclopropane-1-carboxamide] | 50 to 100 | 50 to 100 | 0 to 80 | – | – | – |
| O=C(Nc1ccc(F)cc1)c1cc(NC(=O)C2C(c3cc(Cl)cc(Cl)c3)C2(F)Cl)ccc1Cl (stereo not drawn) [PF153, 2-Chloro-5-(trans)-2-chloro-3-(3,5-dichlorophenyl)-2-fluorocyclopropane-1-carboxamido)-N-(4-fluorophenyl)benzamide] | – | – | – | 50 to 100 | 50 to 100 | 80 to 100 |

Reference: patent publication US10219516B2, “Molecules having pesticidal utility, and intermediates, compositions, and processes, related thereto” (priority 2015, dated 2019)
